According to ChEMBL document CHEMBL1156829 (Proc Natl Acad Sci U S A, 2008):
Several values for one entry are separate records, joined by “and”; a condition that tells them apart may be missing. Identical values can stand only once.

Assays:
[1] = tested on: Plasmodium falciparum; test: NOVARTIS: Inhibition of Plasmodium falciparum W2 (drug-resistant) proliferation in erythrocyte-based infection assay; type: functional, organism-based; details: read-out: EC50
[2] = NOVARTIS: Cytotoxicity against human hepatocellular carcinoma cell line (Huh7); type: toxicity, cell-based, Huh-7; details: Huh7 cells (hepatocellular carcinoma cell line)
[3] = tested on: Plasmodium falciparum; test: NOVARTIS: Inhibition of Plasmodium falciparum 3D7 (drug-susceptible) proliferation in erythrocyte-based infection assay; type: functional, organism-based

| SMILES | EC50 ([1]; Plasmodium falciparum, W2) [nM] | CC50 [2] [nM] | EC50 ([3]; Plasmodium falciparum, 3D7) [nM] | EC50 [1] | EC50 [3] |
| --- | --- | --- | --- | --- | --- |
| COc1cc(C=NNc2nc3cc(Cl)ccc3[nH]2)cc(OC)c1OC | 1080 | > 10000 | 904 |  |  |
| Clc1cccc(Cl)c1C[n+]1ccc2ccccc2c1 | 867 | > 100000 | 1890 |  |  |
| CN(CCCNc1ccnc2cc(Cl)ccc12)C(=O)c1ccc(C(F)(F)F)cc1 | 319 | 64600 | 166 |  |  |
| CC(=O)c1ccc2c3c(onc13)-c1ccccc1C2=O | 791 | > 100000 | 2250 |  |  |
| CC(C)CNC(=O)c1cnc(NCCCn2ccnc2)nc1NCC(C)C | 1610 | > 10000 | 768 |  |  |
| O=C(NCc1ccccc1)c1cnc(NCCC(c2ccccc2)c2ccccc2)nc1NC1CC1 | < 15.8 | > 10000 | > 1160 |  |  |
| Cc1c(C(=O)N2CCN(c3ccc([N+](=O)[O-])cc3)CC2)sc2ncnc(N(C)c3ccccc3)c12 | > 1250 | > 10000 | 1650 |  |  |
| COc1ccc(-c2csc(Nc3cccc(Cl)c3C)n2)cc1OC | 355 | > 89300 | 8210 |  |  |
| C=C[C@H]1CN2CC[C@H]1C[C@@H]2[C@@H](OC(=O)c1ccc(OC)cc1)c1ccnc2ccccc12 | 18.5 | 2610 | 244 |  |  |
| CCCCC(CC)C(=O)N1CCN(C(CC)c2nc3ccccc3c(=O)n2C)CC1 (stereo not given) | 294 | > 100000 | 374 |  |  |
| CCCCC(=O)N(C)CCCNc1ccnc2cc(Cl)ccc12 | 154 | > 10000 | 124 |  |  |
| CCCN(CCC)C1=CC(=O)C(C(C)(C)C)=CC1=O | 171 | 50900 | 216 |  |  |
| CCCCCn1c(C)[n+](CCCC)c2cc(Cl)c(Cl)cc21 | 1160 | > 100000 | 1240 |  |  |
| CN(C)CCNC(=S)Nc1cccc(C(F)(F)F)c1 | 897 | > 100000 | 4030 |  |  |
| Oc1ccc(-c2cccnc2)cc1CNC1C2CC3CC(C2)CC1C3 (stereo not given) | 195 | > 100000 | 459 |  |  |
| COc1cccc(C2CC3(CC(C)(C)NC(=S)N3)Oc3cc(OC(C)=O)c(Cl)cc32)c1 (stereo not given) | > 995 | > 10000 | > 1300 |  |  |
| CO[C@H](C(=O)[C@@H](O)[C@@H](C)O)[C@@H]1Cc2cc3cc(O[C@H]4C[C@@H](O[C@@H]5C[C@@H](O)[C@@H](O)[C@@H](C)O5)[C@@H](O)[C@H](C)O4)c(C)c(O)c3c(O)c2C(=O)[C@H]1O[C@H]1C[C@@H](O[C@H]2C[C@@H](O[C@H]3C[C@](C)(O)[C@@H](O)[C@H](C)O3)[C@H](O)[C@@H](C)O2)[C@H](O)[C@H](C)O1 | 208 | > 10000 | 497 |  |  |
| CC1CCCC(NC(=O)C2N(CCN3CCCCC3C)C(=O)C3C(C(=O)Nc4cccc(Cl)c4)C4C=CC32O4)C1C (stereo not given) | 4610 | 47700 | > 10400 |  |  |
| O=C1C=CC(=O)N1c1ccc(Sc2ccc(N3C(=O)C=CC3=O)cc2)cc1 | > 1250 | > 10000 | > 814 |  |  |
| CCOC(=O)c1sc(NC(=O)CSc2nnc(CNC(=O)c3ccco3)n2-c2ccc(F)cc2)c(C(=O)OCC)c1C | > 1060 | > 10000 | > 1250 |  |  |
| Brc1ccc(-c2cn3c([n+]2-c2ccccc2)SCC3)cc1 | 303 | > 100000 | 335 |  |  |
| CCc1ccc(NC(=O)c2ccc(F)c(S(=O)(=O)N3CCN(C)CC3)c2)cc1 | > 584 | > 10000 | > 1250 |  |  |

| SMILES | EC50 ([1]; Plasmodium falciparum, W2) [nM] | CC50 [2] [nM] | EC50 ([3]; Plasmodium falciparum, 3D7) [nM] | EC50 [1] | EC50 [3] |
| --- | --- | --- | --- | --- | --- |
| Clc1nc(Nc2ccccc2)nc(N2CCCCC2)n1 | 381 | 48300 | > 12500 |  |  |
| COc1cc(C(=O)NCCc2ccccn2)ccc1OC1CCN(CC(c2ccccc2)c2ccccc2)CC1 | 86.4 | 13000 | 440 |  |  |
| Cc1cc(C)c(NC(=S)N(CCCN2CCCCC2)Cc2cccs2)c(C)c1 | 179 | > 10000 | > 1540 |  |  |
| COc1ccc(C2CC(=O)C3=C(C2)NC(C)=C(C(=O)OC(C)C)C3c2ccccc2Br)cc1OC (stereo not given) | 7.84 | 23300 | 13.7 |  |  |
| COCCNC(=O)C(c1ccc(C)cc1)N(Cc1ccccc1)C(=O)CCC(=O)Nc1nccs1 (stereo not given) | 1720 | > 100000 | > 4590 |  |  |
| COc1ccccc1N(CC(=O)N1CCCCC1)S(=O)(=O)c1ccccc1 | > 1070 | > 10000 | > 1250 |  |  |
| O=C(Nc1ccccc1F)NC1CC2CCCC(C1)N2CCc1ccccc1 (stereo not given) | 140 | > 10600 | 440 |  |  |
| COc1cc(C=NNC(=O)c2cccc3ccccc23)ccc1OCC(N)=O | > 989 | > 10000 | > 1250 |  |  |
| CSc1nc(SC)c2c3c(sc2n1)CN(C)CC3 | 881 | > 100000 | 750 |  |  |
| Cc1ccccc1-c1cnnc(NCC2CCCCO2)n1 (stereo not given) | 4820 | > 100000 | 11100 |  |  |
| O=C(Nc1ccc(Cl)c(C(F)(F)F)c1)NC1CC2CCC(C1)N2C1CCCC1 (stereo not given) | 810 | > 10000 | 541 |  |  |
| Cc1ccn2c(NC(C)(C)CC(C)(C)C)c(-c3ccccc3OC(=O)C3CCCCC3)nc2c1 | 18.7 | > 10000 | 654 |  |  |
| Fc1ccc2[nH]c3c(NCCN4CCCCC4)ncnc3c2c1 | 214 | 23700 | 154 |  |  |
| CCOc1ccc(Nc2cc(C)nc3c(C)cc(C)cc23)cc1 | 225 | 19200 | 484 |  |  |
| CN(C)c1ccc(/C=C2\C(=O)NC(=O)N(Cc3ccccc3Cl)C2=O)cc1 | 1110 | > 10000 | > 1250 |  |  |
| CN1CCC(CCNCc2ccc(OCC(O)CN(C)Cc3ccccc3)cc2)CC1 (stereo not given) | 1080 | 68600 | 1110 |  |  |
| CC(=O)O[C@H]1C(=O)[C@@]2(C)C([C@H](OC(=O)c3ccccc3)[C@]3(O)C[C@H](OC(=O)[C@@H](O)[C@@H](NC(=O)c4ccccc4)c4ccccc4)C(C)=C1C3(C)C)[C@]1(OC(C)=O)CO[C@@H]1C[C@@H]2O (stereo not given in full) | 152 | > 100000 | 658 |  |  |
| CCOc1ccc2[nH]c(=O)c(CN(Cc3ccccc3OC)C(C)=O)cc2c1 | > 1210 | > 10000 | > 1740 |  |  |
| COC(=O)c1sccc1S(=O)(=O)N1CCCC(c2[nH]ncc2-c2ccccc2)C1 (stereo not given) | 3440 | > 100000 | 3030 |  |  |
| CCCCCCCC(=O)N1CCN(CCN(Cc2ccc(F)cc2)C(=O)c2c(-c3c(F)cccc3Cl)noc2C)CC1 | 1660 | > 100000 | 1760 |  |  |
| Cn1c(=O)c2c(ncn2CC(O)CN2CCCC2)n(C)c1=O (stereo not given) | > 1190 | > 10000 | > 1250 |  |  |
| CCCCCCCCCC(=O)N1CCN(C(CC)c2nc3ccccc3c(=O)n2C)CC1 (stereo not given) | 267 | > 10000 | 283 |  |  |

| SMILES | EC50 ([1]; Plasmodium falciparum, W2) [nM] | CC50 [2] [nM] | EC50 ([3]; Plasmodium falciparum, 3D7) [nM] | EC50 [1] | EC50 [3] |
| --- | --- | --- | --- | --- | --- |
| Cc1cccc2nc(N)nc(N)c12 | > 1250 | > 10000 | 753 |  |  |
| O=c1c(=O)n(Cc2cccc(C(F)(F)F)c2)ccn1CCc1ccccc1 | > 1250 | > 10000 | > 673 |  |  |
| Cc1cc(Oc2ncnc(N(C)CC(=O)OC(C)(C)C)c2[N+](=O)[O-])c2nncn2n1 | > 684 | > 10000 | > 1630 |  |  |
| CN(CCCNc1nc2ccccc2c2nc(-c3cccnc3)nn12)Cc1ccccc1 | > 996 | > 10000 | > 771 |  |  |
| CC(C)N(CC(=O)Nc1cc(C(C)(C)C)nn1-c1ccc(Cl)c(Cl)c1)C(=O)c1ccc(C(C)(C)C)cc1 | 7330 | > 100000 | 6030 |  |  |
| CCCCCCC(NC(=O)OCc1ccccc1)S(=O)(=O)c1ccc(C)cc1 (stereo not given) | 5800 | > 100000 | > 12500 |  |  |
| CC(C)N(CC(=O)Nc1cc(C(C)(C)C)nn1-c1ccc(Cl)cc1)C(=O)c1cccc2ccccc12 | > 1240 | > 10000 | 1210 |  |  |
| CCOC(=O)c1cnc2c(C)cccc2c1Nc1ccc(C(C)=O)cc1 | 84.6 | > 100000 | 119 |  |  |
| CCCC(CCC)C(=O)Nc1ccc2c(c1)N(C(=O)CCCl)c1ccccc1CC2 | 2580 | > 100000 | 416 |  |  |
| CCOc1ccc(NC2=C(N3CCOCC3)C(=O)c3ccccc3C2=O)cc1 | 6570 | > 100000 | 3660 |  |  |
| O=C(O)CC(c1ccc2c(c1)OCO2)N1CCS(=O)(=O)CC1 (stereo not given) | > 196 | > 10000 | > 1250 |  |  |
| CCOc1ccc(NC(=O)c2ccc(F)c(S(=O)(=O)NC3CCCC(C)C3C)c2)cc1 (stereo not given) | 178 | 32200 | 1040 |  |  |
| CN1CCN=C1c1ccc(NC(=O)c2ccc(C(=O)Nc3ccc(C4=NCCN4C)cc3)c([N+](=O)[O-])c2)cc1 | 9.13 | > 10000 | 72.5 |  |  |
| COC(=O)c1ccc(C2C3=C(O)CC(c4ccc(C)cc4)CC3=Nc3ccccc3N2C(=O)c2cccs2)cc1 (stereo not given) |  | > 100000 |  | 808 nM and 264 nM | 328 nM and 88 nM |
| CC(=O)OCN1C(=O)N(COC(C)=O)C2C1N(COC(C)=O)C(=O)N2COC(C)=O (stereo not given) | 4220 | > 100000 | > 11600 |  |  |
| CS(=O)(=O)c1ccccc1S(=O)(=O)N1CCC(NC(=O)c2ccccc2Cl)(C(=O)O)CC1 | > 725 | > 10000 | > 1250 |  |  |
| COc1ccc(/C=C2\SC(=Nc3ccccc3OC)NC2=O)cc1 | 106 | > 10000 | 249 |  |  |
| O=c1c([N+](=O)[O-])cccn1Cc1ccc(F)cc1Cl | 783 | > 100000 | 358 |  |  |
| CN(C)c1ccc(C2Nc3ccccc3NC3=C2C(=O)CC(C)(C)C3)cc1 (stereo not given) | 4390 | > 100000 | > 12500 |  |  |
| COc1ccc(-c2csc(Nc3ccc(O)cc3)n2)cc1OC | 3210 | > 100000 | 2960 |  |  |
| O=S(=O)(NCCCCNc1ccnc2cc(Cl)ccc12)c1ccc(F)cc1 | 713 | > 10000 | 341 |  |  |
